Experimental data taken from patent publication US20240174680A1, “CDK2 INHIBITORS AND METHODS OF USING THE SAME” (Cedilla Therapeutics, Inc., priority 2021, published 2024).
One block for each molecule: values may come before it.

Legend:
[1] = test system: Kuramochi cells labeled with mApple-H2B; assay: IncuCyte cell proliferation assay; format: cell-based; conditions: 72 hours
Experimental: IncuCyte® assay was used to measure the effect of disclosed compounds on cell proliferation. Fluorescent microscopy images of cells were taken immediately after compound treatment and 72 hours later. Image analysis software was used to obtain cell counts as a function of compound concentration. Kuramochi cells labeled with mApple-H2B were seeded on 384-well assay-ready plates. Plates were placed in an IncuCyte® (Sartorius) and scanned at 0 and 72 hours. IncuCyte® software was used to count the number of fluorescent nuclei in each well. The fold change in cell count from 0 to 72 hours in wells treated with increasing compounds concentrations (10 pts, 1/2 log dilution, 20 μM top concentration) was normalized to DMSO control wells. The normalized cell counts were fit with dose response curves and a […] was calculated.
Compounds with an ICp greater than 0.5 μM and less than or equal to 5.0 μM are designated as “B”.

Kuramochi cells = assay: BrdU cell proliferation assay (colorimetric ELISA); format: cell-based; conditions: read-out: BrdU - KURAMOCHI.1: IC50
Experimental: A BrdU assay was used as a measure of proliferation based on the DNA replication process of proliferating cells. BrdU, a pyrimidine analog, is added to the cell culture and incorporated into the DNA of proliferating cells. The presence of the BrdU analog was then measured through a colorimetric ELISA. After fixation and permeabilization of cells, peroxidase-conjugated antibody recognizing BrdU is added and allowed to incubate, followed by thorough washing to remove unbound antibody. In order to quantify the amount of bound antibody, peroxidase substrate is added and produces a color that can be measured at 450 nm.
On day −1, Kuramochi cells (Sekisui XenoTech JCRB0098) were seeded at 2,000 cells/well in columns 2-12 of a 96 well plate (Corning, CLS3596) in 150 μL media and allowed to adhere overnight at 37 degree with 5% CO2.
On day 0, the source plate was prepared by adding 10 mM compounds and performing 3-fold serial dilutions for a 10-point dose response of each compound. Using a multichannel pipette, 2 μL of the contents of the source plate were stamped into an intermediate plate with 500 μL of RPMI 1640 Media, GlutaMAX Supplement (Life Technologies, 61870127) in each well of a Nunc 96 DeepWell™ plate, non-treated 96 DeepWell plate, 2 mL/well, sterile, natural, 60/cs (Sigma Z717274) and mixed thoroughly. 50 μL from each well of this intermediate plate were added to 4 wells of a 96-well plate with previously seeded Kuramochi cells.
On day 4, the plates were developed using the BrdU ELISA Cell Proliferation Assay according to manufacturer's instructions (Roche, 11647229001). Briefly, BrdU was diluted 1:100 in Gibco®, OptiMEM® and 20 μL/well was added, shaken for 10 minutes at 350 rpm, and then returned to the incubator for 1 hour. Following incubation, the medium was discarded, and the cells were fixed by adding 200 μL of Fix/Denature solution. The anti-BrdU peroxidase antibody was diluted 1:1000 in OptiMEM, added at 100 μL/well, and incubated while shaking (350 rpm) for one hour. Three washes with PBS were performed to remove any unbound antibody, followed by the addition of 100 μL of substrate solution to each well. 25 μL/well of 1M sulfuric acid solution was then added to halt the reaction, and plates were read out using an Envision spectrophotometer (Perkin Elmer) set to read 450 nm absorbance. Background absorbance values from empty wells were subtracted from all samples and then normalized to DMSO treated wells.

CDK2/Cyclin E1 = CDK2/Cyclin E1 (Homo sapiens, UniProt P24941); assay: CDK2/Cyclin E1 Caliper LabChip EZ Reader mobility shift assay; format: biochemical; set-up: purchased Eurofins 14-475; conditions: read-out: Caliper Assay (CDK2/CCNE1): IC50
Outline: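 Mobility-shift kinase assay: compound titrations preincubated 30 min with enzyme and ATP, reaction started with 5-FAM-QSPKKG-CONH2 peptide. Final 2.5 nM CDK2/Cyclin E1, 100 μM ATP, 1.5 μM peptide, HEPES pH 7.5; stopped with EDTA after 100 min. IC50 from four-parameter fit of normalized conversion ratio.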

SMILES: C[C@@H](OCC1CCOCC1)[C@H](NC(=O)[C@@H]1CN(C(=O)c2cncs2)CC12CN(C(=O)[C@H]1CC1(C)C)C2)C(=O)N1CCC(c2ccncc2)CC1 [I-442]
IC50 [1]: 5 to 20 µM

SMILES: C[C@@H](OCC1CCC(F)(F)CC1)[C@H](NC(=O)C1CN(C(=O)c2cnn(Cc3ccc(F)cc3)c2)CC12CN(C(=O)C1(C(F)(F)F)CC1)C2)C(=O)N1CCC(F)(F)CC1 (single isomer, unassigned) [I-190B]
IC50 (Kuramochi cells): 0.5 to 5 µM
IC50 [1]: 5 to 20 µM

IC50 (CDK2/Cyclin E1): 0.01 to 0.1 µM
SMILES: C[C@@H](OCC1CCC(F)(F)CC1)[C@H](NC(=O)[C@@H]1CN(C(=O)c2cnn(Cc3ccc(F)cc3)c2)CC12CN(C(=O)C1(C(F)(F)F)CC1)C2)C(=O)N1CCC(F)(F)CC1 [I-190A]
IC50 [1]: ≤ 0.5 µM

SMILES: C[C@@H](OCC1CCOCC1)[C@@H](COC(F)F)NC(=O)[C@@H]1CN(C(=O)c2cncs2)CC12CN(C(=O)[C@H]1CC1(C)C)C2 [I-441]
IC50 [1]: > 20 µM

SMILES: C[C@@H](OCc1ccccc1)[C@H](NC(=O)C1CN(C(=O)c2cnn(Cc3ccccc3)c2)CC12CN(C(=O)C1CC1(C)C)C2)C(=O)NCCCCCNC(=O)OC(C)(C)C (stereo partly drawn) [I-52]
IC50 (Kuramochi cells): 0.5 to 5 µM
IC50 [1]: 0.5 to 5 µM

IC50 (CDK2/Cyclin E1): > 10 µM
SMILES: CNC(=O)[C@@H](NC(=O)[C@@H]1CN(C(=O)c2cncs2)CC12CN(CC1CCOCC1)C2)[C@@H](C)OCC12CCC(CC1)OC2 [I-346]
IC50 (Kuramochi cells): > 10 µM
IC50 [1]: > 20 µM

SMILES: COCC1CCCN(C(=O)[C@@H](NC(=O)[C@H]2CN(C(=O)c3cnn(Cc4ccccc4)c3)CC23CN(C(=O)[C@H]2CC2(C)C)C3)[C@@H](C)OCC2CCCCC2)C1 (stereo partly drawn) [I-111]
IC50 (Kuramochi cells): ≤ 0.5 µM
IC50 [1]: 0.5 to 5 µM

SMILES: CNC(=O)[C@@H](NC(=O)[C@@H]1CN(C(=O)c2cncs2)CC12CN(C(=O)[C@H]1CC1(C)C)C2)c1nnc(C2CCCCC2)o1 [I-429]
IC50 (Kuramochi cells): > 10 µM
IC50 [1]: > 20 µM
